Experimental data taken from patent US20220162257A1, “3ALPHA, 5BETA-NEUROACTIVE STEROIDS FOR THE TREATMENT OF EPILEPSY AND SEIZURE DISEASES” (USTAV ORGANICKE CHEMIE A BIOCHEMIE AV CR, V. V. I., priority 2019, published 2022).
Counter-ions that a name gives are not always drawn.

Legend:
[1] = system: experimental seizures in animal models; settings: cited from earlier work; for effect in experimental seizures: seizures elicited by pentylenetetrazol, pilocarpine, NMDA and kainic acid
[2] = system: PTZ-induced seizures in 12- and 25-day-old rats; test: PTZ-induced generalized tonic-clonic seizures in immature rats; type: in vivo, rat
Protocol: Anticonvulsant effect of compounds was evaluated in two models of epileptic seizures in immature rats (PTZ model and 6 Hz model). PTZ convulsions were tested in 12- and 25-day-old rats, 6 Hz-induced seizures in 15- and 25-day-old rats. Young adult rats (P60) were also used in either test. Day of birth was taken as P0. Experiments evaluating precognitive effect were performed in adult male rats of the Wistar and Long Evans strain (3 months old, b.w. 300-400 g). All animals were obtained from a breeding facility of Institute of Physiology CAS (certificate No. 1396/2014-MZE-17214) Animals were held in standard conditions (21±1° C., humidity 50-60%, light regime 12/12) with unrestricted access to food and water. All manipulations with animals were performed according to the https://nc3rs.org.uk/arrive-guidelines and to Czech Animal Protection Law 246/1992 Sb. And international directives (EU Directive 2010/63/EU for animals' experiments).
Two age groups of immature male Wistar rats were used in either experiment. In PTZ model P12 corresponding by a maturation of the brain to early postnatal human babies, i.e. to the period where children epileptic encephalopathy mostly resistant to present pharmacotherapy start to appear. The other group—P25 animals corresponds with school-age children. Generalized tonic-clonic seizures were elicited by a subcutaneous injection of PTZ in a dose of 100 mg/kg. The 6 Hz model was tested in P15 (at this age eyes are open and it is not necessary to surgically distract lids). Biphasic pulses with […] were applied transcorneally for 3 s by a constant current stimulator of Ugo Basile company. PTZ induced generalized seizures represent a model of human generalized tonic-clonic seizures, seizures elicited by 6 Hz stimulation are generally taken as a model of temporal (psychomotor, complex partial) seizures. Differences in latencies and seizure severity were evaluated by ANOVA with a subsequent pairwise comparison by Holm-Sidak test. Incidence of seizures were evaluated by Fischer exact test. Critical p value was set at p=0.05.
Anticonvulsant effect was studied in 12- and 25-day-old male Wistar rats. Steroid derivatives were administered at doses of 1, 5 and 10 mg/kg i.p. 20 min before the administration of PTZ (100 mg/kg s.c.).

[3] = system: PTZ-induced seizures in zebrafish (Danio rerio); test: pentetrazol (PTZ)-induced seizures in zebrafish larvae; type: in vivo; settings: 7 dpf larvae, PTZ 5 mmol/L; for epileptiform locomotor activity in the dark phase/light test, sedation: doses of 1, 3 and 5 mg/kg; for locomotor activity epileptiform induced by PTZ (spontaneous locomotor activity, maximum velocity, angle turns): doses of 1, 3 and 5 mg/kg (1, 3 and 5 μmol/L in the source)
Protocol: Adults wild-type (strain AB) zebrafish (Danio rerio) were maintained at 28-29° C. on a light cycle of 14 h light:10h dark (lights on at 7 am; lights off at 9 pm) at ZeClinics animal facility (Barcelona). All procedures involving animals and their care were conducted accordingly to CEA-OH/9421/2 authorization from Government of Catalonia. Embryos obtained by pairwise mating were raised in E3 media at the controlled temperature of 28.5° C. until 7 days post-fertilization (dpf) when the experiments were performed.
The anticonvulsant activity of the claimed compounds on the nervous system of zebrafish (Danio rerio). This test is the modern alternative to tests in adult animals as Danio rerio is very versatile organism that has a number of physiological similarities to mammals, including humans (Expert Opin. Drug Metab. Toxicol. 2009, 5, 393). Steroidal compounds were tested in three concentrations (1, 3 and 5 μmol.L^−1) on 7 days post-fertilization (dpf) wild-type larvae. As a negative control, sibling larvae were incubated with DMSO 1%, which allows us to detect behavioral alterations of PTZ treated larvae. Seizures were induced by treatment of pentetrazol (PTZ) at the dose 5 mmol.L^−1. Commercially available anti-convulsant drug Topiramate was used as comparator. Results were analyzed with GraphPad Prism software and statistical significance is assessed by the One-way ANOVA statistical analysis followed by Tukey's multiple comparisons test. The zebrafish larvae locomotion and response to visual stimuli are traced and analyzed by the EthoVision XT 12 software and the DanioVision device from Noldus Information Technologies, Wageningen, The Netherlands.
This closed system consists of a camera placed above a chamber with circulating water and a temperature sensor that is set at 28° C. Individualized larvae in a 48-wells plate are placed in the chamber, which can provide different stimuli (light/dark environment, tapping, sound) controlled by the software. Prior to each experiment, larvae were left for 10 minutes in dark for acclimation, then predetermined series of alternating dark and light environment are presented to the larvae. The final experimental protocol is divided in three main part: first a 15 minutes step with light on, then a series of 5 short flashes of light to induce epileptic seizures and finally a 25 minutes dark/light alternating environments phase. Different sets of information can be extrapolated from the different phases: while the first step is useful to detect changes in the total larvae locomotion, the second part allows us to analyze the larval response to a seizure-inducing visual stimulus and measure the seizure characteristics: the maximum velocity and the number of angles turns (specific of seizure erratic movement). The final phase is useful to detect anomalies in larval movement and deviations from the stereotyped behavior (natural locomotor behavior of zebrafish is active in dark and immobile in light). The anticonvulsant effect of compounds was studied at doses of […] for the compound shown in Example 1, Example 2 and Example 3.

adults and children = settings: clinical studies; cited from earlier work
[4] = both age groups (P12, P25), 5 and 10 mg/kg i.p.

C[C@H]1CC[C@H]2[C@@H]3CC[C@@H]4C[C@H](OC(=O)C5CCC(=O)N5)CC[C@]4(C)[C@H]3CC[C@]12C (stereo partly shown)
melting point: 157 to 158 °C

C/C=C1/CC[C@H]2[C@@H]3CC[C@@H]4C[C@H](OC(=O)C5CCC(=O)N5)CC[C@]4(C)[C@H]3CC[C@]12C (stereo partly shown)
melting point: 155 to 157 °C

C[C@@]12CCC[C@H]1[C@@H]1CC[C@@H]3C[C@H](OCCOC(=O)C4CCC(=O)N4)CC[C@]3(C)[C@H]1CC2 (stereo partly shown)
melting point: 110 to 111 °C

C[C@@]12CCC[C@H]1[C@@H]1CC[C@@H]3C[C@H](OCCOC(=O)C4CCCC(=O)N4)CC[C@]3(C)[C@H]1CC2 (stereo partly shown)
melting point: 117 to 119 °C

CC(=O)[C@H]1CC[C@H]2[C@@H]3CC[C@@H]4C[C@H](OC(=O)C5CCC(=O)N5)CC[C@]4(C)[C@H]3[C@H](O)C[C@]12C (stereo partly shown)
melting point: 183 to 185 °C

C[C@@]12CCC[C@H]1[C@@H]1CC[C@@H]3C[C@H](OC(=O)C4CCC(=O)N4)CC[C@]3(C)[C@H]1CC2 (stereo partly shown)
melting point: 136 to 137 °C

C[C@]12CC[C@@H](OC(=O)C3CCC(=O)N3)C[C@H]1CC[C@@H]1[C@@H]2CC[C@]2(C)C(=O)CC[C@@H]12 (stereo partly shown)
melting point: 114 to 116 °C

C[C@@]12CCC[C@H]1[C@@H]1CC[C@@H]3C[C@H](OC(=O)C4CCCC(=O)N4)CC[C@]3(C)[C@H]1CC2 (stereo partly shown)
melting point: 109 to 111 °C

C[C@]12CC[C@@H](OC(=O)C3CCCC(=O)N3)C[C@H]1CC[C@@H]1[C@@H]2CC[C@]2(C)[C@@H](C#N)CC[C@@H]12 (stereo partly shown)
melting point: 69 to 71 °C

CC(=O)NCC(=O)O[C@@H]1CC[C@@]2(C)[C@H](CC[C@@H]3[C@@H]2CC[C@]2(C)[C@@H](C(C)=O)CC[C@@H]32)C1
melting point: 111 to 113 °C

CC(=O)[C@H]1CC[C@H]2[C@@H]3CC[C@H]4C[C@H](O)CC[C@]4(C)[C@H]3CC[C@]12C [ALLO, 20-oxo-5α-pregnan-3α-ol]
frequency of seizures, mortality and cellular death ([1]; animal models of epilepsy): deceases frequency of seizures, mortality and cellular death | effect in experimental seizures [1]: significant effect

CC(=O)[C@H]1CC[C@H]2[C@@H]3CC[C@H]4C[C@@H](OC(=O)[C@@H]5CCC(=O)N5)CC[C@]4(C)[C@H]3CC[C@]12C [Allopregnanolone (S)-5-oxopyrrolidin-2-carboxylate, reference compound]
action against generalized tonic-clonic seizures ([2]; PTZ 100 mg/kg s.c., 12- and 25-day-old rats): only a moderate action

CC(=O)[C@H]1CC[C@H]2[C@@H]3CC[C@@H]4C[C@H](OC(=O)C5CCCC(=O)N5)CC[C@]4(C)[C@H]3CC[C@]12C (stereo partly drawn) [Example 2, (3R,5R,8R,9S,10S,13S,14S,17S)-17-Acetyl-10,13-dimethylhexadecahydro-1H-cyclopenta[a]phenantren-3-yl 6-oxopiperidine-2-carboxylate]
epileptiform locomotor activity in the dark phase/light test, sedation [3]: decreased epileptiform locomotor activity in the dark phase/light test without causing sedation | locomotor activity epileptiform induced by PTZ (spontaneous locomotor activity, maximum velocity, angle turns) [3]: significantly reduced the locomotor activity epileptiform induced by PTZ | incidence of GTCS [2, 4]: suppressed significantly | seizure severity [2, 4]: suppressed significantly

C[C@]12CC[C@@H](OC(=O)C3CCC(=O)N3)C[C@H]1CC[C@@H]1[C@@H]2CC[C@]2(C)[C@@H](C#N)CC[C@@H]12 (stereo partly drawn) [Example 3, (3R,5R,8R,9S,10S,13S,14S,17S)-17-Cyano-10,13-dimethylhexadecahydro-1H-cyclopenta[a]phenanthren-3-yl 5-oxopyrrolidine-2-carboxylate]
epileptiform locomotor activity in the dark phase/light test, sedation [3]: decreased epileptiform locomotor activity in the dark phase/light test without causing sedation | locomotor activity epileptiform induced by PTZ (spontaneous locomotor activity, maximum velocity, angle turns) [3]: significantly reduced the locomotor activity epileptiform induced by PTZ | incidence of GTCS ([2]; P12 rats, 1, 5, 10 mg/kg i.p.): significantly affected only by the 5-mg/kg dose | incidence of GTCS ([2]; P25 rats, 5 and 10 mg/kg i.p.): suppressed incidence of GTCS

CC(=O)[C@H]1CC[C@H]2[C@@H]3CC[C@H]4C[C@](C)(O)CC[C@]4(C)[C@H]3CC[C@]12C [Ganaxolone]
generation of seizures ([1]; rodents): able to prevent generation of seizures in rodents | tolerability (adults and children): good tolerability in adults as well as children

CC(=O)[C@H]1CC[C@H]2[C@@H]3CCC4=C[C@@H](OC(=O)[C@@H]5CCCN5)CC[C@]4(C)[C@H]3CC[C@]12C [PI-33, 3β-L-proline-progesterone-HCl, reference compound]
incidence of generalized tonic-clonic seizures ([2]; 1 and 10 mg/kg doses): did not change incidence of generalized tonic-clonic seizures

CC(=O)[C@H]1CC[C@H]2[C@@H]3CCC4=CC(=O)CC[C@]4(C)[C@H]3CC[C@]12C [PROG, pregn-4-en-3,20-dione]
effect in experimental seizures [1]: significant effect
